{
  "source": "patent US8946289B2",
  "about": "“Manassatin compounds and methods of making and using the same” (Duke University, priority 2008, dated 2015)",
  "key": {"[1]": {"test_system": "interleukin-2 (IL-2)", "experiment": "Inhibition of interleukin-2 release in Jurkat T cells, ELISA", "format": "cell-based, human", "conditions": "Jurkat T cells stimulated with PMA and PHA, 18 h", "protocol": "Human E6.1 Jurkat T cells were cultured in RPMI-1640 with 10% fetal bovine serum (FBS), 2 mM I-glutamine, and 1 mM Na-pyruvate. After serum starvation for 7 h, Jurkat cells were plated in 96 well culture plates at 1.25×10^5 cells/mL in RPMI-1640 (without phenol red) with 10% FBS. Cells were treated with phorbol 12-myristate 13-acetate (PMA, 1.25 ng/mL) and phytohemaglutinin (PHA, 0.25 μg/mL) to stimulate secretion of IL-2. Testing compound or DMSO vehicle was added to appropriate wells. […] Plates were then incubated for 18 h. Cell supernatants were collected (100 μL) and assayed for interleukin-2 (IL-2) by ELISA (Human IL-2 ELISA Kit, available from BD Biosciences, San Jose, Calif.). All test conditions were assayed in triplicate and verified with repeated experiments three times."}, "[2]": {"test_system": "Athymic Nude mouse", "experiment": "Non-tumored animal toxicity assay, single dose", "format": "in vivo", "conditions": "for Death Days / Survivors/Total at day 15: single dose", "protocol": "All treatment was administered according to exact body weight. A single Athymic Nude mouse was given a single injection (IP) of 400 mg/kg; a second mouse received a dose of 200 mg/kg, and a third mouse received a single dose of 100 mg/kg. […] They were sacrificed if they lost more than 20% of their body weight or if there were other signs of significant toxicity. […] This process was repeated until a tolerated dose was found. This dose was then designated the maximum tolerated dose (MTD). The mice were allowed ad libitum feed and water. Injections were administered IP. Dose volumes were generally 0.1 mL/10 grams body weight but may be up to 0.2 mL/10 grams of body weight."}, "[3]": {"test_system": "HIF-1", "conditions": "T47D cells, 10 μM 1,10-phenanthroline, 16 h; cited from earlier work"}, "[4]": {"test_system": "60 different human tumor cell lines", "experiment": "NCI-60 DTP Human Tumor Cell Line Screen", "format": "cell-based", "protocol": "The NCI-60 DTP Human Tumor Cell Line Screen utilized 60 different human tumor cell lines, representing leukemia, melanoma, and cancers of the lung, colon, brain, ovary, breast, prostate, and kidney. The screening was a two-stage process.\nThe human tumor cell lines of the cancer screening panel were grown in RPMI 1640 medium containing 5% fetal bovine serum and 2 mM L-glutamine. For a typical screening experiment, cells were inoculated into 96 well microtiter plates in 100 μL at plating densities ranging from 5,000 to 40,000 cells/well depending on the doubling time of individual cell lines.\nAfter 24 h, two plates of each cell line were fixed in situ with TCA, to represent a measurement of the cell population for each cell line at the time of drug addition (Tz). […] At the time of drug addition, an aliquot of frozen concentrate was thawed and diluted to twice the desired final maximum test concentration with complete medium containing 50 μg/mL gentamicin. Additional four, 10-fold, or ½ log serial dilutions were made to provide a total of five drug concentrations plus control. Aliquots of 100 μL of these different drug dilutions were added to the appropriate microtiter wells already containing 100 μL of medium, resulting in the required final drug concentrations.\nFor adherent cells, the assay was terminated by the addition of cold TCA. Cells were fixed in situ by the gentle addition of 50 μL of cold 50% (w/v) TCA (final concentration, 10% TCA) and incubated for 60 minutes at 4° C. The supernatant was discarded, and the plates were washed five times with tap water and air dried. Sulforhodamine B (SRB) solution (100 μL) at 0.4% (w/v) in 1% acetic acid was added to each well, and plates were incubated for 10 minutes at room temperature. […] Bound stain was subsequently solubilized with 10 mM trizma base, and the absorbance was read on an automated plate reader at a wavelength of 515 nm. […] Using the seven absorbance measurements [time zero, (Tz), control growth, (C), and test growth in the presence of drug at the five concentration levels (Ti)], the percentage growth was calculated at each of the drug concentrations levels. Percentage growth inhibition was calculated as: [(Ti−Tz)/(C−Tz)]×100 for concentrations for which Ti>/=Tz [(Ti−Tz)/Tz]×100 for concentrations for which Ti<Tz.\nThree dose response parameters were calculated for each experimental agent: GI50, TGI, and LC50. […] The drug concentration resulting in total growth inhibition (TGI) was calculated from Ti=Tz. […] Values were calculated for each of these three parameters if the level of activity was reached; however, if the effect was not reached or is exceeded, the value for that parameter was expressed as greater or less than the maximum or minimum concentration tested."}, "[5]": {"test_system": "VEGF", "experiment": "HIF-1 regulated VEGF secretion, ELISA", "format": "cell-based, mouse", "conditions": "4T1 cells, hypoxia 0.5% O2, 24 h", "source_text": "Vascular endothelial growth factor (VEGF) is a gene that is highly involved in tumor progression as a pro-angiogenic factor."}, "[6]": {"test_system": "4T1 cells", "conditions": "24 h, highest concentration examined 10 μM", "protocol": "Like MTT (3-(4,5-d imethylthiazol-2-yl)-2,5-diphenyltetrazolium bromide, a tetrazole), MTS was reduced into a formazan product by living cells in the presence of an electron coupling reagent (phenazine methosulfate, PMS). The absorbance of the formazan was detected at 490 nm. […] Then cells were washed and incubated another three hours with cell medium containing MTS/PMS solution at 37° C. (21% O2, 5% CO2). Relative cell survival rate was determined on the O.D. values measured at 490 nm."}, "[7]": {"test_system": "HIF-1α protein", "experiment": "Western blot of nuclear extracts, HIF-1α expression in 4T1 cells", "format": "cell-based, mouse"}, "[8]": {"test_system": "HIF-1α", "experiment": "Western blot of nuclear extracts, HIF-1α expression in MDA-MB-231 cells", "format": "cell-based, human"}, "[9]": {"test_system": "HIF-1", "experiment": "ODD-Luc assay (luciferase reporter) for HIF-1 inhibitory activity", "format": "cell-based, mouse", "conditions": "read-out: HIF-1 inhibitory activity IC50; 4T1-ODD-Luc cells, 240 μM CoCl2, compounds 24 h", "protocol": "The HIF-1 inhibitory of compound 1, 18, and the anti-diol diastereomer 22 were assessed with the ODD-Luc assay (Li, F.; Sonveaux, P.; Rabbani, Z. N.; Liu, S.; Yan, B.; Huang, Q.; Vujaskovic, Z.; Dewhirst, M. W.; Li, C. Y. Mol. Cell 2007, 26, 63-74, which is incorporated by reference). 4T1-ODD-Luc cells, stably transfected with the oxygen-dependent-degradation (ODD) domain of HIF-1α and a firefly luciferase reporter, were seeded in the 24-well plate at a density of 10^5 cells/well. After 16-hour incubation, cells were treated with 240 μM of Cobalt (II) Chloride (Sigma-Aldrich, St. Louis, Mo., USA) and serially diluted compounds for 24 h. To measure the luciferase signals, luciferin (150 mg/mL) was added and the plates were imaged using the Xenogen IVIS imaging system and associated Living Image software (Xenogen, Alameda, Calif.). Luciferase expression/activity was detected and quantified as relative light units (RLUs). Results are means±SD, n=3.\nTo determine HIF-1 inhibitory activity of 31 and 33, a luciferase-reporter based assay was used as a primary screen. […] Luciferase signals were detected and quantified as relative light units (RLUs)."}, "[10]": {"conditions": "single dose 10 μM, leukemia, melanoma, and ovarian cancer"}},
  "note": "Where two headings read alike, the source gives them in different places.",
  "data": [
    {"smiles": "O=c1ccc2c(OCCCCc3ccccc3)c3ccoc3cc2o1", "note": "[Psora4, reference compound]", "values": [
      {"measurement": "release of interleukin-2", "setting": "[1]", "result": "inhibited"}
    ]},
    {"smiles": "COc1ccc([C@H](O)[C@@H](C)Oc2ccc(C3OC(c4ccc(O[C@H](C)[C@@H](O)c5ccc(OC)c(OC)c5)c(OC)c4)[C@H](C)[C@H]3C)cc2OC)cc1OC", "note": "(stereo partly drawn) [Compound 22]", "values": [
      {"measurement": "release of interleukin-2", "setting": "[1]", "result": "inhibited"}
    ]},
    {"smiles": "COc1ccc([C@@H](O)[C@@H](C)Oc2ccc(C3OC(c4ccc(O[C@H](C)[C@H](O)c5ccc(OC)c(OC)c5)c(OC)c4)[C@H](C)[C@H]3C)cc2OC)cc1OC", "note": "(stereo partly drawn) [manassantin A]", "values": [
      {"measurement": "Death Days", "setting": "[2]; Group 4, 100.00 mg/kg/dose IP", "result": 0},
      {"measurement": "Survivors/Total at day 15", "setting": "[2]; Group 4, 100.00 mg/kg/dose IP", "result": "0/1"},
      {"measurement": "Death Days", "setting": "[2]; Group 11, 12.50 mg/kg/dose IP", "result": 0},
      {"measurement": "Survivors/Total at day 15", "setting": "[2]; Group 11, 12.50 mg/kg/dose IP", "result": "0/1"},
      {"measurement": "Death Days", "setting": "[2]; Group 12, 1.56 mg/kg/dose IP", "result": "none"},
      {"measurement": "Survivors/Total at day 15", "setting": "[2]; Group 12, 1.56 mg/kg/dose IP", "result": "1/1"},
      {"measurement": "Death Days", "setting": "[2]; Group 13, 3.13 mg/kg/dose IP", "result": "none"},
      {"measurement": "Survivors/Total at day 15", "setting": "[2]; Group 13, 3.13 mg/kg/dose IP", "result": "1/1"},
      {"measurement": "Death Days", "setting": "[2]; Group 14, 6.25 mg/kg/dose IP", "result": "none"},
      {"measurement": "Survivors/Total at day 15", "setting": "[2]; Group 14, 6.25 mg/kg/dose IP", "result": "1/1"},
      {"measurement": "toxicity (in words)", "setting": "[2]; levels of 6.25, 3.13, and 1.56 mg/kg/dose IP", "result": "non-toxic"},
      {"measurement": "toxicity (in words)", "setting": "[2]; levels of 12.50 and 100.00 mg/kg/dose IP", "result": "resulted in death"},
      {"measurement": "toxicity outcome at first dose levels", "setting": "[2]; single IP injection of 400, 200 and 100 mg/kg, one mouse each", "result": "all 3 mice had to be sacrificed"},
      {"measurement": "effect on iron chelator-induced HIF-1 activation", "setting": "[3]", "result": "no significant effect"},
      {"measurement": "release of interleukin-2", "setting": "[1]", "result": "inhibited"},
      {"measurement": "tumor cell growth, trial 1", "setting": "[4]; single dose 10 μM, 48 h, SRB", "result": "reduced the growth of all tumors tested"},
      {"measurement": "lethality, trial 1", "setting": "[4]; [10]", "result": "more than 50%"},
      {"measurement": "lethality, trial 2", "setting": "[4]; [10]", "result": "more than 50%"},
      {"measurement": "tumor cell growth, trial 2", "setting": "[4]; trial 2, 48 h, SRB", "result": "reduced the growth of all tumors tested"},
      {"measurement": "concentration significantly inhibiting VEGF induced by hypoxia", "setting": "[5]", "result": "higher than 10 nM"},
      {"measurement": "Solubility", "setting": "Group 4, 200.0 mg/mL in 100% DMSO", "result": "soluble, no"},
      {"measurement": "Solubility", "setting": "Group 11, 25.0 mg/mL in 100% DMSO", "result": "soluble, no"},
      {"measurement": "Solubility", "setting": "Group 12, 3.125 mg/mL in 100% DMSO", "result": "soluble, no"},
      {"measurement": "Solubility", "setting": "Group 13, 3.125 mg/mL in 100% DMSO", "result": "soluble, no"},
      {"measurement": "Solubility", "setting": "Group 14, 3.125 mg/mL in 100% DMSO", "result": "soluble, no"},
      {"measurement": "cell survival rate", "setting": "[6]", "result": "~70", "unit": "%"},
      {"measurement": "HIF-1α expression induced by CoCl2", "setting": "[7]; 4T1 cells, 240 μM CoCl2 24 h, manassantin A 100 nM", "result": "inhibited"},
      {"measurement": "concentration significantly inhibiting hypoxia-induced nuclear expression of HIF-1α protein", "setting": "[7]; 4T1 cells, hypoxia 0.5% O2, 24 h", "result": "higher than 10 nM"},
      {"measurement": "expression of HIF-1", "setting": "[7]; at the concentration 100 nM", "result": "completely inhibited"},
      {"measurement": "HIF-1α nuclear expression induced by CoCl2", "setting": "[8]", "result": "inhibited"}
    ]},
    {"smiles": "COc1ccc([C@@H](O)[C@@H](C)Oc2ccc(C3OC(c4ccc(O[C@H](C)[C@H](O)c5ccc(OC)c(OC)c5)c(OC)c4)[C@H](C)[C@H]3C)cc2OC)cc1OC", "note": "(stereo partly drawn) [Compound 33]", "values": [
      {"measurement": "IC50", "setting": "[9]", "result": 47, "unit": "nM"}
    ]}
  ]
}
